ChEMBL document CHEMBL4196226, “5-HT2C Receptor Agonists for the Treatment of Obesity” (ACS Med Chem Lett, 2018)
Active and inactive are the calls of the source. The calls are words filed in the database; no cut-off is given here.

Species on record: Rattus norvegicus
Experiment: Antiobesity activity in Sprague-Dawley rat assessed as reduction in cumulative food intake
Format: functional, organism-based

With `FC(F)(F)CCc1ccnc2c1CC[C@@H]1CNCCN21` the Activity was “Active”.
